Reference: patent US6376617B1, “Bioactive derivatives of camptothecin” (Pharmacia & Upjohn S.p.A., priority 1997, dated 2002)

Tested on: human colon carcinoma (HT29)
Experiment: Antitumor activity on human colon carcinoma (HT29) transplanted in nude mice
Settings: HT29 sc in nude mice; for TI% 46th day (tumor inhibition %): day 46
Method: Tumor fragment were implanted sc. Treatment started when tumor was palpable. TI % (tumor inhibition %) was calculated at day 46.

[1] = iv q4dx6, dose 20 mg/kg, total dose 120 mg/kg

Row | Compound | Tox [1] | TI% 46th day (tumor inhibition %) [1] | TI% 46th day (tumor inhibition %) (iv q4dx8, dose 5 mg/kg, total dose 40 mg/kg) | TI% 46th day (tumor inhibition %) (iv q4dx8, dose 10 mg/kg, total dose 80 mg/kg) | TI% 46th day (tumor inhibition %) (iv q4dx8, dose 20 mg/kg, total dose 160 mg/kg)
1 | CCc1c2c(nc3ccc(O)cc13)-c1cc3c(c(=O)n1C2)COC(=O)[C@]3(O)CC [1a, 7-ethyl-10-hydroxycamptothecin, reference compound] | 1/7 | 97% |  |  | 
2 | copolymer of N-(2-hydroxypropyl)methacrylamide, {7-ethyl-10-hydroxy-20-O-[N-methacryloyl-glycyl-L-phenylalanyl-L-leucyl-glycyl]camptothecin} and N-(2-hydroxypropyl)methacryloylglycinamide [A1] |  |  | 77% | 91% | 98%
